Source: US7261906B2, “Anti-cancer therapy agent of arsenic hexoxide (As4O6) of a natural chemical substance and its pharmaceutical composition” (priority 1998, dated 2007)

Test: Acute toxicity, single oral administration
Format: in vivo, Rats (Sprague Dawley strain)
Details: for Mortality, Days after treatment 1 / Mortality, Days after treatment 2 / Mortality, Days after treatment 3 / Mortality, Days after treatment 4 / Mortality, Days after treatment 5 / Mortality, Days after treatment 6 / Mortality, Days after treatment 7 / Mortality, Days after treatment 8 / Mortality, Days after treatment 9 / Mortality, Days after treatment 10 / Mortality, Days after treatment 11 / Mortality, Days after treatment 12 / Mortality, Days after treatment 13 / Mortality, Days after treatment 14 / Mortality, Hours after treatment 1 / Mortality, Hours after treatment 2 / Mortality, Hours after treatment 3 / Mortality, Hours after treatment 4 / Mortality, Hours after treatment 5 / Mortality, Hours after treatment 6 / Final mortality / Final mortality (dead/total): Female; for Final mortality / Final mortality (dead/total): 14 days; for LD50 (50% Lethal Dose): oral administration
Description: The acute toxicity of oral administration of HD-2 was evaluated according to toxicity assessment criteria described in Article 96-8 of Notice on Food and Drug Safety (Apr. 16, 1994). Rats (Sprague Dawley strain) were used for animal experiments. Dosage of a single, oral administration ranged from 0.4 to 1.25 g/kg body weight in male rats and 0.4 to […] body weight in female rats. General conditions of the animals, toxic symptoms, and mortality were measured every hour for the initial 6 hours following the single administration and once a day afterwards for 14 days. Body weights were measured before starting the study, 7 days after the administration, and at autopsy. Expired rats were studied to find the cause of death at autopsy. […] Some rats manifesting these clinical symptoms expired, but others recovered to normal condition within 2 to 3 days of clinical symptoms.

O1[As]2O[As]3O[As]1O[As](O2)O3 [HD-2, arsenic hexoxide (As4O6)]
Mortality, Days after treatment 1 (0.4 g/kg B.W. oral): 0
Mortality, Days after treatment 2 (0.4 g/kg B.W. oral): 0
Mortality, Days after treatment 3 (0.4 g/kg B.W. oral): 0
Mortality, Days after treatment 4 (0.4 g/kg B.W. oral): 0
Mortality, Days after treatment 5 (0.4 g/kg B.W. oral): 0
Mortality, Days after treatment 6 (0.4 g/kg B.W. oral): 0
Mortality, Days after treatment 7 (0.4 g/kg B.W. oral): 0
Mortality, Days after treatment 8 (0.4 g/kg B.W. oral): 0
Mortality, Days after treatment 9 (0.4 g/kg B.W. oral): 0
Mortality, Days after treatment 10 (0.4 g/kg B.W. oral): 0
Mortality, Days after treatment 11 (0.4 g/kg B.W. oral): 0
Mortality, Days after treatment 12 (0.4 g/kg B.W. oral): 0
Mortality, Days after treatment 13 (0.4 g/kg B.W. oral): 0
Mortality, Days after treatment 14 (0.4 g/kg B.W. oral): 0
Mortality, Hours after treatment 1 (0.4 g/kg B.W. oral): 0
Mortality, Hours after treatment 2 (0.4 g/kg B.W. oral): 0
Mortality, Hours after treatment 3 (0.4 g/kg B.W. oral): 0
Mortality, Hours after treatment 4 (0.4 g/kg B.W. oral): 0
Mortality, Hours after treatment 5 (0.4 g/kg B.W. oral): 0
Mortality, Hours after treatment 6 (0.4 g/kg B.W. oral): 0
Final mortality (0.4 g/kg B.W. oral): 0%
Final mortality (dead/total) (0.4 g/kg B.W. oral): 0/5
Mortality, Days after treatment 1 (0.5 g/kg B.W. oral): 0
Mortality, Days after treatment 2 (0.5 g/kg B.W. oral): 0
Mortality, Days after treatment 3 (0.5 g/kg B.W. oral): 0
Mortality, Days after treatment 4 (0.5 g/kg B.W. oral): 0
Mortality, Days after treatment 5 (0.5 g/kg B.W. oral): 0
Mortality, Days after treatment 6 (0.5 g/kg B.W. oral): 0
Mortality, Days after treatment 7 (0.5 g/kg B.W. oral): 0
Mortality, Days after treatment 8 (0.5 g/kg B.W. oral): 0
Mortality, Days after treatment 9 (0.5 g/kg B.W. oral): 0
Mortality, Days after treatment 10 (0.5 g/kg B.W. oral): 0
Mortality, Days after treatment 11 (0.5 g/kg B.W. oral): 0
Mortality, Days after treatment 12 (0.5 g/kg B.W. oral): 0
Mortality, Days after treatment 13 (0.5 g/kg B.W. oral): 0
Mortality, Days after treatment 14 (0.5 g/kg B.W. oral): 0
Mortality, Hours after treatment 1 (0.5 g/kg B.W. oral): 0
Mortality, Hours after treatment 2 (0.5 g/kg B.W. oral): 0
Mortality, Hours after treatment 3 (0.5 g/kg B.W. oral): 0
Mortality, Hours after treatment 4 (0.5 g/kg B.W. oral): 0
Mortality, Hours after treatment 5 (0.5 g/kg B.W. oral): 0
Mortality, Hours after treatment 6 (0.5 g/kg B.W. oral): 0
Final mortality (0.5 g/kg B.W. oral): 0%
Final mortality (dead/total) (0.5 g/kg B.W. oral): 0/5
Mortality, Days after treatment 1 (0.58 g/kg B.W. oral): 1
Mortality, Days after treatment 2 (0.58 g/kg B.W. oral): 1
Mortality, Days after treatment 3 (0.58 g/kg B.W. oral): 0
Mortality, Days after treatment 4 (0.58 g/kg B.W. oral): 0
Mortality, Days after treatment 5 (0.58 g/kg B.W. oral): 0
Mortality, Days after treatment 6 (0.58 g/kg B.W. oral): 0
Mortality, Days after treatment 7 (0.58 g/kg B.W. oral): 0
Mortality, Days after treatment 8 (0.58 g/kg B.W. oral): 0
Mortality, Days after treatment 9 (0.58 g/kg B.W. oral): 0
Mortality, Days after treatment 10 (0.58 g/kg B.W. oral): 0
Mortality, Days after treatment 11 (0.58 g/kg B.W. oral): 0
Mortality, Days after treatment 12 (0.58 g/kg B.W. oral): 0
Mortality, Days after treatment 13 (0.58 g/kg B.W. oral): 0
Mortality, Days after treatment 14 (0.58 g/kg B.W. oral): 0
Mortality, Hours after treatment 1 (0.58 g/kg B.W. oral): 0
Mortality, Hours after treatment 2 (0.58 g/kg B.W. oral): 0
Mortality, Hours after treatment 3 (0.58 g/kg B.W. oral): 0
Mortality, Hours after treatment 4 (0.58 g/kg B.W. oral): 0
Mortality, Hours after treatment 5 (0.58 g/kg B.W. oral): 0
Mortality, Hours after treatment 6 (0.58 g/kg B.W. oral): 0
Final mortality (0.58 g/kg B.W. oral): 40%
Final mortality (dead/total) (0.58 g/kg B.W. oral): 2/5
Mortality, Days after treatment 1 (0.62 g/kg B.W. oral): 3
Mortality, Days after treatment 2 (0.62 g/kg B.W. oral): 1
Mortality, Days after treatment 3 (0.62 g/kg B.W. oral): 0
Mortality, Days after treatment 4 (0.62 g/kg B.W. oral): 0
Mortality, Days after treatment 5 (0.62 g/kg B.W. oral): 0
Mortality, Days after treatment 6 (0.62 g/kg B.W. oral): 0
Mortality, Days after treatment 7 (0.62 g/kg B.W. oral): 0
Mortality, Days after treatment 8 (0.62 g/kg B.W. oral): 0
Mortality, Days after treatment 9 (0.62 g/kg B.W. oral): 0
Mortality, Days after treatment 10 (0.62 g/kg B.W. oral): 0
Mortality, Days after treatment 11 (0.62 g/kg B.W. oral): 0
Mortality, Days after treatment 12 (0.62 g/kg B.W. oral): 0
Mortality, Days after treatment 13 (0.62 g/kg B.W. oral): 0
Mortality, Days after treatment 14 (0.62 g/kg B.W. oral): 0
Mortality, Hours after treatment 1 (0.62 g/kg B.W. oral): 0
Mortality, Hours after treatment 2 (0.62 g/kg B.W. oral): 0
Mortality, Hours after treatment 3 (0.62 g/kg B.W. oral): 0
Mortality, Hours after treatment 4 (0.62 g/kg B.W. oral): 0
Mortality, Hours after treatment 5 (0.62 g/kg B.W. oral): 0
Mortality, Hours after treatment 6 (0.62 g/kg B.W. oral): 0
Final mortality (0.62 g/kg B.W. oral): 80%
Final mortality (dead/total) (0.62 g/kg B.W. oral): 4/5
Mortality, Days after treatment 1 (0.625 g/kg B.W. oral): 1
Mortality, Days after treatment 2 (0.625 g/kg B.W. oral): 0
Mortality, Days after treatment 3 (0.625 g/kg B.W. oral): 0
Mortality, Days after treatment 4 (0.625 g/kg B.W. oral): 0
Mortality, Days after treatment 5 (0.625 g/kg B.W. oral): 0
Mortality, Days after treatment 6 (0.625 g/kg B.W. oral): 0
Mortality, Days after treatment 7 (0.625 g/kg B.W. oral): 0
Mortality, Days after treatment 8 (0.625 g/kg B.W. oral): 0
Mortality, Days after treatment 9 (0.625 g/kg B.W. oral): 0
Mortality, Days after treatment 10 (0.625 g/kg B.W. oral): 0
Mortality, Days after treatment 11 (0.625 g/kg B.W. oral): 0
Mortality, Days after treatment 12 (0.625 g/kg B.W. oral): 0
Mortality, Days after treatment 13 (0.625 g/kg B.W. oral): 0
Mortality, Days after treatment 14 (0.625 g/kg B.W. oral): 0
Mortality, Hours after treatment 1 (0.625 g/kg B.W. oral): 0
Mortality, Hours after treatment 2 (0.625 g/kg B.W. oral): 0
Mortality, Hours after treatment 3 (0.625 g/kg B.W. oral): 0
Mortality, Hours after treatment 4 (0.625 g/kg B.W. oral): 0
Mortality, Hours after treatment 5 (0.625 g/kg B.W. oral): 0
Mortality, Hours after treatment 6 (0.625 g/kg B.W. oral): 0
Final mortality (0.625 g/kg B.W. oral): 100%
Final mortality (dead/total) (0.625 g/kg B.W. oral): 5/5
Changes in weight vs control group (all subgroups of different dosages): did not show any significant difference
LD50 (50% Lethal Dose) (female rats): 0.58 g/kg body weight
LD50 (50% Lethal Dose) (male rats): 0.81 g/kg body weight
